system: SKM MF; test: SKM MF AC1.4: ATPase screen of skeletal sarcomeric proteins with PK/LDH coupled enzyme system; type: biochemical; set-up: AC1.4 Median: unit not given here; details: not given
Experimental: For example, test compounds can be assayed in a highly parallel fashion by using multiwell plates by placing the compounds either individually in wells or testing them in mixtures. Assay components including the target protein complex, coupling enzymes and substrates, and ATP can then be added to the wells and the absorbance or fluorescence of each well of the plate can be measured with a plate reader.
In some embodiments, the method uses a 384 well plate format and a 25 μL reaction volume. A pyruvate kinase/lactate dehydrogenase coupled enzyme system (Huang T G and Hackney D D. (1994) J Biol Chem 269(23):16493-501) can be used to measure the rate of ATP hydrolysis in each well. As will be appreciated by those in the art, the assay components are added in buffers and reagents. The incubation periods can be optimized to give adequate detection signals over the background. The assay can be done in real time giving the kinetics of ATP hydrolysis which increases the signal to noise ratio of the assay.
Just prior to screening, the actin, tropomyosin, and troponin complex are mixed together in the desired ratio (e.g., 7:1:1) to achieve maximal calcium regulation of the actin filament. The screen is conducted at a pCa=6.5. This calcium concentration is in the physiological range during muscle contraction.
To measure the generation of ADP during the reaction, a pyruvate kinase/lactate dehydrogenase/NADH coupled enzyme system (PK/LDH) is added to the actin. The myosin is kept separately. The plates are read in real time so that kinetic curves are obtained. These compounds are in DMSO and were already spotted onto the bottoms of 384 well plates at 10 to 40 μg/ml final concentration.

Compound	SKM MF AC1.4 [µM]
CCC(CC)n1c(O)nc2ncc(Br)cc21 [6-bromo-1-(pentan-3-yl)-1H-imidazo[4,5-b]pyridin-2-ol]	0.9
CCC(CC)n1c(O)nc2ncc(Cl)cc21 [6-chloro-1-(pentan-3-yl)-1H-imidazo[4,5-b]pyridin-2-ol]	0.82
CCC(CC)n1c(O)nc2ncc(C)cc21 [6-methyl-1-(pentan-3-yl)-1H-imidazo[4,5-b]pyridin-2-ol]	5.7

same assay, conditions: median

Compound	AC1.4 Median
C=Cc1cnc2nc(O)n(C(CC)CC)c2c1 [1-(pentan-3-yl)-6-vinyl-1H-imidazo[4,5-b]pyridin-2-ol]	3.0420
CC(C)(C)n1c(O)nc2ncc(Cl)cc21 [1-(tert-butyl)-6-chloroimidazo[4,5-b]pyridin-2-ol]	9.8213
CC(C)(C)C(CO)n1c(O)nc2ncc(Cl)cc21 (centres unmarked) [1-[1-(tert-butyl)-2-hydroxyethyl]-6-chloroimidazo[4,5-b]pyridin-2-ol]	48.1977
CC[C@H](CN1CCOCC1)n1c(O)nc2ncc(Cl)cc21 [1-[(1R)-1-(morpholin-4-ylmethyl)propyl]-6-chloroimidazo[4,5-b]pyridin-2-ol]	15.2631
CC(C)C[C@H](CO)n1c(O)nc2ncc(Cl)cc21 [1-[(1R)-2-hydroxy-1-(2-methylpropyl)ethyl]-6-chloroimidazo[4,5-b]pyridin-2-ol]	5.6431
Oc1nc2ncc(Cl)cc2n1[C@H](Cc1ccccn1)CN1CCOCC1 [1-[(1R)-2-morpholin-4-yl-1-(2-pyridylmethyl)ethyl]-6-chloroimidazo[4,5-b]pyridin-2-ol]	10.9895
Oc1nc2ncc(Cl)cc2n1[C@H](Cc1ccccc1)CN1CCOCC1 [1-[(1R)-2-morpholin-4-yl-1-benzylethyl]-6-chloroimidazo[4,5-b]pyridin-2-ol]	8.8149
CC(C)C[C@H](CN1CCOCC1)n1c(O)nc2ncc(Cl)cc21 [1-[(1R)-3-methyl-1-(morpholin-4-ylmethyl)butyl]-6-chloroimidazo[4,5-b]pyridin-2-ol]	5.0392
CCC(CC)n1c(O)nc2nc(Br)c(Br)cc21 [5,6-dibromo-1-(ethylpropyl)imidazo[4,5-b]pyridin-2-ol]	9.8768
CCC(CC)n1c(O)nc2nc(Cl)c(Cl)cc21 [5,6-dichloro-1-(ethylpropyl)imidazo[4,5-b]pyridin-2-ol]	8.6854
CCC(CC)n1c(O)nc2ncc(SC)cc21 [6-(methylthio)-1-(pentan-3-yl)-1H-imidazo[4,5-b]pyridin-2-ol]	13.7960
CCC(CC)n1c(O)nc2ncc(Br)cc21 [6-bromo-1-(pentan-3-yl)-1H-imidazo[4,5-b]pyridin-2-ol]	1.1739
CC(n1c(O)nc2ncc(Cl)cc21)C(C)(C)C (centres unmarked) [6-chloro-1-(1,2,2-trimethylpropyl)imidazo[4,5-b]pyridin-2-ol]	28.0697
CCC(CO)n1c(O)nc2ncc(Cl)cc21 (centres unmarked) [6-chloro-1-(1-ethyl-2-hydroxyethyl)imidazo[4,5-b]pyridin-2-ol]	8.4752
CCC(C(C)C)n1c(O)nc2ncc(Cl)cc21 (centres unmarked) [6-chloro-1-(1-ethyl-2-methylpropyl)imidazo[4,5-b]pyridin-2-ol]	10.7918
CCC(CC(C)C)n1c(O)nc2ncc(Cl)cc21 (centres unmarked) [6-chloro-1-(1-ethyl-3-methylbutyl)imidazo[4,5-b]pyridin-2-ol]	2.6422
CCC(CC)(Cn1c(O)nc2ncc(Cl)cc21)c1ccccc1 [6-chloro-1-(2-ethyl-2-phenylbutyl)imidazo[4,5-b]pyridin-2-ol]	11.0001
CCC(CC)Cn1c(O)nc2ncc(Cl)cc21 [6-chloro-1-(2-ethylbutyl)-1H-imidazo[4,5-b]pyridin-2-ol]	25.2370
CC(Cn1c(O)nc2ncc(Cl)cc21)c1ccccc1 (centres unmarked) [6-chloro-1-(2-phenylpropyl)imidazo[4,5-b]pyridin-2-ol]	22.4532
CCC(CC)n1c(O)nc2ncc(Cl)c(C#N)c21 [6-chloro-1-(ethylpropyl)-2-hydroxyimidazo[4,5-b]pyridine-7-carbonitrile]	1.0215
C=C(C)c1c(Cl)cnc2nc(O)n(C(CC)CC)c12 [6-chloro-1-(ethylpropyl)-7-(1-methylvinyl)imidazo[4,5-b]pyridin-2-ol]	1.8005
CCC(CC)n1c(O)nc2ncc(Cl)c(I)c21 [6-chloro-1-(ethylpropyl)-7-iodoimidazo[4,5-b]pyridin-2-ol]	1.1778
CCC(CC)n1c(O)nc2ncc(Cl)c(C)c21 [6-chloro-1-(ethylpropyl)-7-methylimidazo[4,5-b]pyridin-2-ol]	3.9463
C=CCc1c(Cl)cnc2nc(O)n(C(CC)CC)c12 [6-chloro-1-(ethylpropyl)-7-prop-2-enylimidazo[4,5-b]pyridin-2-ol]	3.6218

Compound	AC1.4 Median
CCC(CC)n1c(O)nc2ncc(Cl)cc21 [6-chloro-1-(pentan-3-yl)-1H-imidazo[4,5-b]pyridin-2-ol]	1.6866
CCCC(CCC)n1c(O)nc2ncc(Cl)cc21 [6-chloro-1-(propylbutyl)imidazo[4,5-b]pyridin-2-ol]	3.7477
COCCCCn1c(O)nc2ncc(Cl)cc21 [6-chloro-1-[(methoxymethyl)propyl]imidazo[4,5-b]pyridin-2-ol]	45.5421
Oc1nc2ncc(Cl)cc2n1CCCC(F)(F)F [6-chloro-1-[(trifluoromethyl)propyl]imidazo[4,5-b]pyridin-2-ol]	8.0408
C=CCn1c(O)nc2ncc(Cl)c(I)c21 [6-chloro-7-iodo-1-prop-2-enylimidazo[4,5-b]pyridin-2-ol]	23.0211
CCc1cnc2nc(O)n(C(CC)CC)c2c1 [6-ethyl-1-(pentan-3-yl)-1H-imidazo[4,5-b]pyridin-2-ol]	41.9678
C#Cc1cnc2nc(O)n(C(CC)CC)c2c1 [6-ethynyl-1-(pentan-3-yl)-1H-imidazo[4,5-b]pyridin-2-ol]	0.1667
CCC(CC)n1c(O)nc2ncc(F)cc21 [6-fluoro-1-(pentan-3-yl)-1H-imidazo[4,5-b]pyridin-2-ol]	12.9347
CCC(CC)n1c(O)nc2ncc(C)cc21 [6-methyl-1-(pentan-3-yl)-1H-imidazo[4,5-b]pyridin-2-ol]	10.2517
CCC(CC)n1c(O)nc2ncc(Cl)c(/C=N/OCC(C)C)c21 [7-[(1E)-2-(2-methylpropoxy)-2-azavinyl]-6-chloro-1-(ethylpropyl)imidazo[4,5-b]pyridin-2-ol]	11.4532
CCC(CC)n1c(O)nc2ncc(Cl)c(/C=N/OCc3ccccc3)c21 [7-[(1E)-2-(phenylmethoxy)-2-azavinyl]-6-chloro-1-(ethylpropyl)imidazo[4,5-b]pyridin-2-ol]	39.7159
CCC(CC)n1c(O)nc2ncc(Cl)c(/C=N/OC(C)(C)C)c21 [7-[(1E)-2-(tert-butoxy)-2-azavinyl]-6-chloro-1-(ethylpropyl)imidazo[4,5-b]pyridin-2-ol]	1.8945
CCC(CC)n1c(O)nc2ncc(Cl)c(/C=N\OCC(C)C)c21 [7-[(1Z)-2-(2-methylpropoxy)-2-azavinyl]-6-chloro-1-(ethylpropyl)imidazo[4,5-b]pyridin-2-ol]	22.4644
CCC(CC)n1c(O)nc2ncc(Cl)c(/C=N\OCc3ccccc3)c21 [7-[(1Z)-2-(phenylmethoxy)-2-azavinyl]-6-chloro-1-(ethylpropyl)imidazo[4,5-b]pyridin-2-ol]	42.0392
CCC(CC)n1c(O)nc2ncc(Cl)c(/C=N\OC(C)(C)C)c21 [7-[(1Z)-2-(tert-butoxy)-2-azavinyl]-6-chloro-1-(ethylpropyl)imidazo[4,5-b]pyridin-2-ol]	19.5317
CCOC(=O)CSSCc1c(Cl)cnc2nc(O)n(C(CC)CC)c12 [ethyl 2-({[6-chloro-1-(ethylpropyl)-2-hydroxyimidazo[4,5-b]pyridin-7-yl]methyl}disulfanyl)acetate]	11.7273
COC(=O)N1CCN(C[C@@H](CC(C)C)n2c(O)nc3cc(Cl)cnc32)CC1 [methyl 4-[(2R)-2-(6-chloro-2-hydroxyimidazo[4,5-b]pyridinyl)-4-methylpentyl]piperazinecarboxylate]	8.3875
COC(=O)c1c(Cl)cnc2nc(O)[nH]c12 [methyl 6-chloro-2-hydroxyimidazo[4,5-b]pyridine-7-carboxylate]	1.7026
CCC(CC)n1c(O)nc2ncc(Cl)c(C3=CCN(C(=O)OC(C)(C)C)CC3)c21 [tert-butyl 4-[6-chloro-1-(ethylpropyl)-2-hydroxyimidazo[4,5-b]pyridin-7-yl]-1,2,5,6-tetrahydropyridinecarboxylate]	26.7443
[1-(ethylpropyl)-6-ethynyl-2-hydroxyimidazo[4,5-b]pyridin-7-yl]-N-methylcarboxamide	6.7023
methyl 1-(ethylpropyl)-2-hydroxyimidazo[4,5-b]pyridine-7-carboxylate	17.1735
methyl 4-[(2R)-2-(6-chloro-2-hydroxyimidazo[4,5-b]pyridinyl)butyl]piperazinecarboxylate	18.2493
tert-butyl 4-[6-chloro-1-(ethylpropyl)-2-hydroxyimidazo[4,5-b]pyridin-7-yl]-4-hydroxypiperidinecarboxylate	28.2335

same assay, conditions: median value (footnote †)

Compound	SKM MF AC1.4 (μM)
C=Cc1cnc2nc(O)n(C(CC)CC)c2c1 [1-(pentan-3-yl)-6-vinyl-1H-imidazo[4,5-b]pyridin-2-ol]	3.042^† μM
CCC(CC)n1c(O)nc2ncc(SC)cc21 [6-(methylthio)-1-(pentan-3-yl)-1H-imidazo[4,5-b]pyridin-2-ol]	13.796^† μM
CCC(CC)Cn1c(O)nc2ncc(Cl)cc21 [6-chloro-1-(2-ethylbutyl)-1H-imidazo[4,5-b]pyridin-2-ol]	25.237^† μM
CCc1cnc2nc(O)n(C(CC)CC)c2c1 [6-ethyl-1-(pentan-3-yl)-1H-imidazo[4,5-b]pyridin-2-ol]	41.9678^† μM
C#Cc1cnc2nc(O)n(C(CC)CC)c2c1 [6-ethynyl-1-(pentan-3-yl)-1H-imidazo[4,5-b]pyridin-2-ol]	0.1563^† μM
CCC(CC)n1c(O)nc2ncc(F)cc21 [6-fluoro-1-(pentan-3-yl)-1H-imidazo[4,5-b]pyridin-2-ol]	12.9347^† μM
